Assay results taken from paper PMC2151622 (The Journal of General Physiology, 2007).

Target: T1, WT-EAAC1 (Oryctolagus cuniculus, UniProt P31597)
T1 sequence (P31597 1-524): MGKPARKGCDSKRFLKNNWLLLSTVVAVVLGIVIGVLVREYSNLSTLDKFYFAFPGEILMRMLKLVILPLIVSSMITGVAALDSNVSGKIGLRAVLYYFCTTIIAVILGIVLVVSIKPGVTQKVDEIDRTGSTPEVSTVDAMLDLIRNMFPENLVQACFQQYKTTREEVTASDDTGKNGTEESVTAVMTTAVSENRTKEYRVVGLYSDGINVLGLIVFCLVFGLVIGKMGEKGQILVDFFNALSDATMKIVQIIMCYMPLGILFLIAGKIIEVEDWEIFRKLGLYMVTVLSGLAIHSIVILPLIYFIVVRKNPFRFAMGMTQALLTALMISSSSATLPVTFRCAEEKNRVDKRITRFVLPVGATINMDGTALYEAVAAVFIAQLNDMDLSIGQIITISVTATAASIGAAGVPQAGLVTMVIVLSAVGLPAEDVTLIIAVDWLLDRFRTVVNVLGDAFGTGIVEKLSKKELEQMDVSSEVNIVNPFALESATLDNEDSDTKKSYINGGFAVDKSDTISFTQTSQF
Assay: Substrate-induced steady-state transport currents in oocytes expressing WT
Format: cell-based, rabbit
Conditions: 2 mM

Q: Which “Induction of steady-state transport currents” value does the source give for `O=C(O)CCC(=O)O` [Succinate, succinate] here?
A: The value was “No steady-state transport currents”.
